Here are results for one molecule from patent US10669266B2, “Oxadiazole inhibitors of HIPK2 for treating kidney fibrosis” (ICAHN SCHOOL OF MEDICINE AT MOUNT SINAI, priority 2017, dated 2020).

Data set [1] has as its system lactate dehydrogenase (LDH) level in cell culture medium. As to the kind of experiment: LDH cytotoxicity assay of cell culture medium. It is filed as cell-based. The conditions noted are these: up to 30 μM, 16 hours of incubation. Here is the method:
Medium LDH measurement was performed using LDH Cytotoxicity Assay Kit (ThermoFisher scientific, NY) according to manufacturer's instructions.
In order to rule out the possibility that the reduction in Smad3 activity is due to the cytotoxicity of increasing concentration of compound, lactate dehydrogenase (LDH) level in cell culture medium was examined. LDH is released by damaged cells.

Data set [2] has as its system Smad3 phosphorylation. Kind of data set: TGF-β1-induced Smad3 phosphorylation in hRTECs (western blot). It is filed as cell-based, human. The conditions noted are these: pretreatment, TGF-β1 5 ng/ml for 20 minutes. The method, then: (§1) HEK 293T (293T) cells (ATCC) were cultured in Dulbecco's Modified Eagle's medium (Invitrogen) containing 10% fetal bovine serum (FBS), 0.5% penicillin and streptomycin at 37° C. and 5% CO2 humidified environment. Human primary tubular cells (PromoCell GmbH, Heidelberg, Germany) were cultured in Renal Epithelial Cell Growth Medium-2 (Promocell GmbH) with supplements according to manufacturer's protocol human primary renal tubular epithelial cells with <5 passages were used for all studies. For HIV infection of hRTECs, pNL4-3:ΔG/P-EGFP, a gag/poi-deleted HIV-1 construct that contains EGFP in the gag open reading frame, and pHR-IRES-EGFP, a control EGFP construct, were used to generate the VSV-G pseudotyped virus. Cells were infected with HIV pseudotyped virus or control virus for 2 days before the treatment with test compound.
Cells were lysed in M-PER mammalian protein extraction reagent (#78501, Thermo Fisher Scientific, NY) containing protease inhibitor cocktail (#11836153001, Roche) and phosphatase inhibitors (50 mM NaF, 10 mM β-glycerophosphate, 5 mM sodium pyrophosphate, 2 mM Na3VO4). Total protein concentration was measured using the Bradford reagent (#500-0006, Bio-Rad). Proteins were separated on SDA-PAGE and transferred to nitrocellulose membrane. […]

For data set [3], the system named is Tg26 mice. Kind of data set: Tg26 (HIV-1 transgenic) mouse model of kidney disease. It is filed as in vivo. Here is the method: Tg26 mice of FVB/N genetic background bearing a defective HIV-1 provirus lacking gag-pol have been described by Feng et al. [J Am Soc Nephrol 2009; 20: 2138-2146]. Six-week old heterozygous Tg26 mice were used in this study. Wildtype littermates were used as controls. Mice in the treatment group received test compound dissolved in DMSO and diluted in saline (5% DMSO) by oral gavage at a dose of 200 μg/kg body weight per day. Mice in the control group received the same volume of 5% DMSO/saline vehicle. The mice were treated for a total of 4 weeks and sacrificed at age of 10 weeks. The UUO model was established in male C57BL/6 mice (The Jackson Laboratory) by ligation of the left ureter as described by Jin et al. [Lab Invest, 93: 801-811, 2013]. After the operation, UUO mice were randomly divided into control group (vehicle) and treatment group. Mice were fed with test compound by oral gavage at a dose of 200 μg/kg body weight per day for 7 days.
Immunofluorescence staining was conducted on paraffin-embedded kidney sections using standard procedures. Briefly, deparaffinized sections were incubated with primary antibody against collagen I (1:50, #NB6-00-4-8, Novus) at 4° C. overnight. After being washed, sections were incubated with Alexa Fluor488-labelled second antibody (1:200, #A11034, Invitrogen) at room temperature for 1 hour in darkness. After nuclei were stained with 4′, 6-diamidino-2-phenyllindole (DAPI) slides were mounted using Aqua PolyMount (Polysciences, Inc) and images were acquired using AxioVision IIe microscope with a digital camera.
Renal fibrosis was evaluated histologically by Sirius red staining on paraffin slides of mice kidney tissues according to the manufacturer's instructions (#ab150681, Abcam). Masson's trichrome staining on paraffin slices of mice kidney tissue was performed according to manufacturer's instructions (#87019, Thermo Scientific).
Tg26 mice are known to develop proteinuria starting from 4 weeks of age and the proteinuria peaks usually around 8-10 weeks of age. Tg26 mice also develop significant glomerulosclerosis and renal failure by 8-10 weeks of age. To determine whether compounds of the invention could reverse kidney injury that has been already developed, we started to treat Tg26 mice with either vehicle or Example 1 from age of 6 weeks for a total of 4 weeks, and the mice were sacrificed at age of 10 weeks.

Data set [4] relates to TGF-β1/Smad3 downstream target genes (Col I, CTGF, FN1, MMP2, PAI1, α-SMA). As to the kind of experiment: Real-time PCR of TGF-β1/Smad3 downstream target genes in hRTECs. It is filed as cell-based, human. Here is the method: as §1
Total RNA was extracted using Trizol (Invitrogen). 400 ng of total RNA was reverse transcribed to cDNA using SuperScript III first strand synthesis system (Invitrogen).
Quantitative RT-PCR was performed using 7500 Real-Time PCR System (Applied Biosystems). Gene level was normalized to glyceraldehyde 3-phosphate dehydrogenase (GAPDH) and expressed as fold change. The primer sets used were as follows:
The effects of compounds of the invention on Smad3 phosphorylation and the expression of the downstream target genes of TGF-β/Smad3 pathway was also examined. […]
For orientation: Quantitative PCR measures a nucleic acid by following its amplification.

Where [5] appears, read: Tg26 mice treated from age of 6 weeks for 4 weeks, vs vehicle.
The mark [6] stands for this setting: Tg26 mice, post-treatment (week 4), 200 μg/kg/day oral gavage.
[7] abbreviates: Tg26 mice, pre-treatment (week 0).
The mark [8] stands for this setting: Wildtype mice, post-treatment (week 4), 200 μg/kg/day oral gavage.
The mark [9] stands for this setting: Wildtype mice, pre-treatment (week 0).

On to `COc1ccc2cc(-c3nc(-c4ccc(Br)cc4)no3)cnc2c1` [Example 1, 3-(4-Bromophenyl)-5-(7-methoxyquinolin-3-yl)-1,2,4-oxadiazole], for which, in data set [1], the “LDH level in the culture medium” value was “no significant increase”. Moreover, the “Smad3 phosphorylation induced by TGF-β1” value in data set [2] is listed as “gradually inhibited”. In addition, the “Smad3 phosphorylation and α-SMA expression” value in data set [3] (Tg26 mice) is given as “significantly reduced”. The “kidney injury and renal fibrosis (picrosirius red, Masson's trichrome, Collagen I immunofluorescence)” value in data set [3] (Tg26 mice) is “attenuated kidney injury and renal fibrosis”. Besides, the proteinuria result in data set [3] (setting [5]) is “significantly reduced proteinuria”. For the same molecule, the renal function entry in data set [3] (setting [5]) is listed as “improved renal function”. Besides, the BUN in data set [3] (setting [6]) was found to be 22.404 ± 4.678 mg/dL; in data set [3] (setting [7]), 23.799 ± 1.990 mg/dL; in data set [3] (setting [8]), 18.875 ± 3.485 mg/dL; in data set [3] (setting [9]), 21.091 ± 3.009 mg/dL. For the same molecule, the “Urinary Albumin:Creatinine Ratio” value worked out at 19.917 ± 5.838 µg/µg in data set [3] (setting [6]), 23.321 ± 12.339 µg/µg in data set [3] (setting [7]), 0.036 ± 0.008 µg/µg in data set [3] (setting [8]) and 0.033 ± 0.007 µg/µg in data set [3] (setting [9]). In addition, the “expression of Col I, CTGF, FN1, MMP2, PAI1 and α-SMA (real-time PCR)” value in data set [4] (absence of TGF-β1 stimulation) is “did not affect expression”; in data set [4] (treated with TGF-β1, increasing concentrations) it was “progressively inhibited”.
